Test results published in the supplement of paper PMC10307832.

How the values were obtained:
Test in all cases: relative viability (nuclei count vs DMSO), 5 days (fraction); higher = more cells survive
[1] = compound: CN(NC(=O)CC(=O)NN(C)C(=S)c1ccccc1)C(=S)c1ccccc1 [Elesclomol] + CC(C)C[C@H](NC(=O)[C@H](Cc1ccccc1)NC(=O)c1cnccn1)B(O)O [Bortezomib] (partner 0.002 µM)
Outline: (§1)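 Lung cancer cell lines were pin-tool dosed in 1536-well plates on the day after seeding, with either a lone drug or a fixed anchor-drug dose plus five library-drug doses (not always all listed) in √10 steps. Nuclei were counted on 4× images after 5 days. Relative viability is the ratio of treated-well to vehicle-well nuclei counts, with each value a median of duplicate plates.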

[2] = compound: CN(NC(=O)CC(=O)NN(C)C(=S)c1ccccc1)C(=S)c1ccccc1 [Elesclomol] + C[C@]1(O)C[C@@H](c2nc(-c3ccc4ccc(-c5ccccc5)nc4c3)c3c(N)nccn32)C1 [Linsitinib] (partner 1 µM)
Outline: as §1

[3] = compound: CN(NC(=O)CC(=O)NN(C)C(=S)c1ccccc1)C(=S)c1ccccc1 [Elesclomol] + Cc1cc(Nc2cc(N3CCN(C)CC3)nc(Sc3ccc(NC(=O)C4CC4)cc3)n2)n[nH]1 [Tozasertib] (partner 0.1 µM)
Outline: as §1

[4] = compound: CN(NC(=O)CC(=O)NN(C)C(=S)c1ccccc1)C(=S)c1ccccc1 [Elesclomol] + N=C(N)NC(=N)NCCc1ccccc1 [Phenformin] (partner 250 µM)
Outline: as §1

[5] = compound: CN(NC(=O)CC(=O)NN(C)C(=S)c1ccccc1)C(=S)c1ccccc1 [Elesclomol] + Nc1nc2[nH]cc(CCc3ccc(C(=O)N[C@@H](CCC(=O)O)C(=O)O)cc3)c2c(=O)[nH]1 [Pemetrexed] (partner 0.2 µM)
Outline: as §1

Cell Line	relative viability ([1]; first compound 0.003162 µM)	relative viability ([1]; first compound 0.01 µM)	relative viability ([1]; first compound 0.03162 µM)	relative viability ([1]; first compound 0.1 µM)	relative viability ([2]; first compound 0.003162 µM)	relative viability ([2]; first compound 0.01 µM)	relative viability ([2]; first compound 0.03162 µM)	relative viability ([2]; first compound 0.1 µM)	relative viability ([3]; first compound 0.003162 µM)	relative viability ([3]; first compound 0.01 µM)	relative viability ([3]; first compound 0.03162 µM)	relative viability ([3]; first compound 0.1 µM)	relative viability ([4]; first compound 0.003162 µM)	relative viability ([4]; first compound 0.01 µM)	relative viability ([4]; first compound 0.03162 µM)	relative viability ([4]; first compound 0.1 µM)	relative viability ([5]; first compound 0.003162 µM)	relative viability ([5]; first compound 0.01 µM)	relative viability ([5]; first compound 0.03162 µM)	relative viability ([5]; first compound 0.1 µM)
NCI-H1993	1.07	1.05	0.49	0.493	0.72	0.823	0.683	0.591	0.568	0.491	0.452	0.401	0.512	0.538	0.517	0.53	0.707	0.6	0.486	0.366
NCI-H460	0.911	0.292	0.0099	0.0073	0.719	0.123	0.0104	0.01	0.497	0.365	0.116	0.0193	0.439	0.0498	0.0181	0.0123	0.0667	0.0599	0.0708	0.0235
NCI-H1975	0.351	0.316	0.193	0.109	0.942	0.764	0.225	0.126	0.733	0.517	0.118	0.0791	0.43	0.329	0.388	0.281	0.298	0.292	0.17	0.133
RERF-LC-KJ	0.943	0.536	0.322	0.276	0.897	0.752	0.412	0.322	0.264	0.239	0.208	0.116	0.341	0.347	0.267	0.218	0.412	0.369	0.332	0.268
NCI-H322M	1.17	–	1.25	1.15	0.977	–	0.916	0.606	0.335	0.275	0.186	0.122	0.769	0.32	0.47	0.0999	0.515	0.368	0.293	0.0948
NCI-H1651	0.859	0.931	0.872	0.655	0.748	0.673	0.193	0.111	0.6	0.601	0.116	0.108	0.321	0.257	0.151	0.1	0.638	0.61	0.535	0.432
HARA	1.1	1.1	1.01	0.332	1.11	0.927	0.872	0.21	0.155	0.108	0.0878	0.0669	0.506	0.413	0.475	0.169	0.211	0.293	0.183	0.141
H3255	0.792	0.465	0.418	0.289	1.01	0.702	0.428	0.432	0.569	0.525	0.405	0.364	0.312	0.338	0.366	0.313	0.627	0.531	0.489	0.474
NCI-H441	0.55	0.454	0.25	0.0495	0.386	0.511	0.276	0.0877	0.546	0.794	0.332	0.1	0.788	0.838	0.604	0.45	0.239	0.234	0.18	0.0576
CAL-12T	1.01	0.555	0.257	0.119	0.942	0.321	0.0785	0.0465	0.268	0.17	0.0901	0.0485	0.456	0.159	0.153	0.0571	1.03	0.576	0.119	0.0739
NCI-H1437	0.388	0.32	0.268	0.264	0.883	0.56	0.271	0.186	0.348	0.344	0.252	0.23	0.292	0.252	0.246	0.217	0.317	0.249	0.224	0.243
HOP-62	0.884	0.708	0.83	0.146	0.909	0.94	0.994	0.184	0.359	0.305	0.277	0.141	0.629	0.508	0.353	0.176	0.369	0.333	0.224	0.113
EPLC-272H	0.918	–	1.03	0.481	1.25	–	1.05	0.26	0.223	–	0.331	0.101	0.293	–	0.291	0.172	0.285	0.118	0.154	0.196
COR-L 105	0.751	0.577	0.347	0.214	0.715	0.494	0.371	0.202	0.385	0.285	0.223	0.142	0.417	0.315	0.289	0.168	1.13	1.17	0.392	0.27
HCC-366	1.09	1.04	0.688	0.0134	0.689	0.663	0.622	0.0082	0.158	0.0679	0.0952	0.0212	0.611	0.562	0.436	0.0349	0.167	0.156	0.116	0.0342
HCC-44	0.906	0.794	0.876	0.628	0.678	0.604	0.623	0.345	0.897	0.794	0.17	0.194	0.375	0.148	0.091	0.0922	0.603	0.607	0.685	0.639
